Source: US10137239B2, “Systems and methods for monitoring time based photo active agent delivery or photo active marker presence” (Avedro, Inc., priority 2011, dated 2018)

Test: Effect of a quenching agent on Riboflavin fluorescence in the eye after Riboflavin pre-soak
Set-up: species or system porcine
Conditions: 1% ascorbic acid drops for 5, 10, 15 min after 30 min pre-soak with 0.1% Riboflavin-5-phosphate in saline; control distilled water; FIGS. 14, 15A, 15B
Experimental: In an experimental setup, the Galilei Dual Scheimpflug Analyzer from Ziemer was used to perform experiments to detect the presence of Riboflavin in porcine corneas through a filter in front of one of the detectors in the Scheimpflug analyzer. The Dual Scheimpflug Analyzer has two detectors that rotate 180° taking several spokes (ranging from 16 to 60 spokes) of the corneal tissue illuminated by 470 nm light through a slit lamp aperture.
A Straw colored filter (Cinegel, Rosco) is used to filter the exciting light (i.e., the 470 nm light), while allowing the fluorescence (i.e., the 525 nm light) to reach the detector. This is illustrated by the graph shown in FIG. 11B, which illustrates the transmission spectrum for the Straw colored filter utilized.
However, as discussed above, several different substances can be utilized as quenching agents to inhibit the photo-activation of a cross-linking agent, or to degrade the cross-linking agent such that it is no longer photo-active. […] After the pre-soak, the eye was placed in front of the Scheimpflug analyzer and another image (or series of images) was captured to determine the distribution of Riboflavin based on the detected pattern of fluorescence within the cornea. […]
To analyze the effects described above, images from the Scheimpflug image capture system were exported and analyzed. […]

Compound: O=C1O[C@H]([C@@H](O)CO)C(O)=C1O [ascorbic acid]
- maximum fluorescence intensity observed with the Scheimpflug imager: considerably decreases the maximum fluorescence intensity
